We go through twelve compounds from ChEMBL document CHEMBL5365464, “Structure-Based Optimization of the Third Generation Type II Macrocycle TRK Inhibitors with Improved Activity against Solvent-Front, xDFG, and Gatekeeper Mutations” (J Med Chem, 2023).

For orientation: IC50 means the concentration that inhibits the measured activity by half.

Assay [1] deals with High affinity nerve growth factor receptor (Homo sapiens, UniProt P04629). Description: Inhibition of N-terminal hexa his tagged TRKA (485 to 795 residues) (unknown origin) expressed in baculovirus expression system Sf9 cells using Ser/Thr 06 as peptide substrate incubated for 1 hr in presence of ATP by FRET based Z-LYTE assay.
Chain of High affinity nerve growth factor receptor (Homo sapiens, UniProt P04629) (P04629 whole entry, the tested form may be a part): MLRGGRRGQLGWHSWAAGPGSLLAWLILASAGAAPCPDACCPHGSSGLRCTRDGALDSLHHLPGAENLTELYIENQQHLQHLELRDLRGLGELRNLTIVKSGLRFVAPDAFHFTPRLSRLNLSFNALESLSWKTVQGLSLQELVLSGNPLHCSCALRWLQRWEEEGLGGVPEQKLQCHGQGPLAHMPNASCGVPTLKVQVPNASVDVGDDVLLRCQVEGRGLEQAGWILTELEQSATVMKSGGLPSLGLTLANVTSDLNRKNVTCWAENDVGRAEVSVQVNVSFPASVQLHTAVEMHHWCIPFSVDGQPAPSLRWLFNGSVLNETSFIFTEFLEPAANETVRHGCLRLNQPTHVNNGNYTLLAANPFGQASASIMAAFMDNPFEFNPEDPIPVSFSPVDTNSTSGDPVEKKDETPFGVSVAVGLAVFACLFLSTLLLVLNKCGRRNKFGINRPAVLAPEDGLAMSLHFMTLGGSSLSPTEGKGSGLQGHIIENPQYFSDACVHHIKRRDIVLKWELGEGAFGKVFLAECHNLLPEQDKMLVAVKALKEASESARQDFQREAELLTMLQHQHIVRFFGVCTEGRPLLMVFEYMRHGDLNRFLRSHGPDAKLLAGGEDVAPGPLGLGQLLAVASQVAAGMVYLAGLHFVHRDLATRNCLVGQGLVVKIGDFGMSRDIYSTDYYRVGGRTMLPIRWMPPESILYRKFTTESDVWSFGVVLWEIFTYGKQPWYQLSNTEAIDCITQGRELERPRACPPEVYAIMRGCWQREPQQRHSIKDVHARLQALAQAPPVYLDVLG
The target of assay [2] is High affinity nerve growth factor receptor (Homo sapiens, UniProt P04629, G667C). The experiment in a line: Inhibition of TRKA G667C mutant (unknown origin) expressed in baculovirus expression system Sf9 cells using Ser/Thr 06 as peptide substrate incubated for 1 hr in presence of ATP by FRET based Z-LYTE assay.
Chain of High affinity nerve growth factor receptor (Homo sapiens, UniProt P04629, G667C) (P04629 33-796 G667C limits assumed): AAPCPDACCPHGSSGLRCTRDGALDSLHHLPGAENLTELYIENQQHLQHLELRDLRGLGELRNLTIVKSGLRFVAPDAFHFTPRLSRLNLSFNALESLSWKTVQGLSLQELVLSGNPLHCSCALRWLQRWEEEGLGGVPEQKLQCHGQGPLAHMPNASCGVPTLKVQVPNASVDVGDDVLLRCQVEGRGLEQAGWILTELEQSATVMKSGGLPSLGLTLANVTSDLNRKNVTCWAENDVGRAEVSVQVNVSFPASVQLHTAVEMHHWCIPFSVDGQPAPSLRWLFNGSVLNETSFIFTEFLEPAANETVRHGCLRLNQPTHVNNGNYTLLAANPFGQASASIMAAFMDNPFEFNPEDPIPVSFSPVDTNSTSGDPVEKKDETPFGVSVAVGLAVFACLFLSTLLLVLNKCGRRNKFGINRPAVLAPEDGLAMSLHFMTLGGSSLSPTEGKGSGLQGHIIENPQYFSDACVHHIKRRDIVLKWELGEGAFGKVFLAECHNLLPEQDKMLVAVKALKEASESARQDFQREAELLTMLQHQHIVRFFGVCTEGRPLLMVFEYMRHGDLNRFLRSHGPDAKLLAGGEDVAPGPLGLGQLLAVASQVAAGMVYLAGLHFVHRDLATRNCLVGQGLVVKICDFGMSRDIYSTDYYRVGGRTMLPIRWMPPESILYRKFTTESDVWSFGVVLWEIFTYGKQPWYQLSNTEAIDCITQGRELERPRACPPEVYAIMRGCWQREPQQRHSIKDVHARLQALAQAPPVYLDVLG
For assay [3], the target named is High affinity nerve growth factor receptor (Homo sapiens, UniProt P04629, G595R). Description: Inhibition of TRKA G595R mutant (unknown origin) expressed in baculovirus expression system Sf9 cells using Ser/Thr 06 as peptide substrate incubated for 1 hr in presence of ATP by FRET based Z-LYTE assay.
Chain of High affinity nerve growth factor receptor (Homo sapiens, UniProt P04629, G595R) (P04629 33-796 G595R limits assumed): as the sequence (P04629 33-796 G667C limits assumed) above, with G563R, C635G counted along it
Assay [4] deals with BaF3. The experiment in a line: cells. The note with it: Mus musculus, BaF3, 72 h.
Assay [5] concerns BaF3. The experiment in a line: Antiproliferative activity against mouse BaF3 cells harbouring ETV6-NTRK3 fusion protein incubated for 3 days by CCK8 method. Conditions: BaF3, 72 h.
The target in assay [6] is NT-3 growth factor receptor (Homo sapiens, UniProt Q16288). Description: Inhibition of TRKC (unknown origin) using Ser/Thr 06 as peptide substrate incubated for 1 hr in presence of ATP by FRET based Z-LYTE assay.
Chain of NT-3 growth factor receptor (Q16288 whole entry, the tested form may be a part): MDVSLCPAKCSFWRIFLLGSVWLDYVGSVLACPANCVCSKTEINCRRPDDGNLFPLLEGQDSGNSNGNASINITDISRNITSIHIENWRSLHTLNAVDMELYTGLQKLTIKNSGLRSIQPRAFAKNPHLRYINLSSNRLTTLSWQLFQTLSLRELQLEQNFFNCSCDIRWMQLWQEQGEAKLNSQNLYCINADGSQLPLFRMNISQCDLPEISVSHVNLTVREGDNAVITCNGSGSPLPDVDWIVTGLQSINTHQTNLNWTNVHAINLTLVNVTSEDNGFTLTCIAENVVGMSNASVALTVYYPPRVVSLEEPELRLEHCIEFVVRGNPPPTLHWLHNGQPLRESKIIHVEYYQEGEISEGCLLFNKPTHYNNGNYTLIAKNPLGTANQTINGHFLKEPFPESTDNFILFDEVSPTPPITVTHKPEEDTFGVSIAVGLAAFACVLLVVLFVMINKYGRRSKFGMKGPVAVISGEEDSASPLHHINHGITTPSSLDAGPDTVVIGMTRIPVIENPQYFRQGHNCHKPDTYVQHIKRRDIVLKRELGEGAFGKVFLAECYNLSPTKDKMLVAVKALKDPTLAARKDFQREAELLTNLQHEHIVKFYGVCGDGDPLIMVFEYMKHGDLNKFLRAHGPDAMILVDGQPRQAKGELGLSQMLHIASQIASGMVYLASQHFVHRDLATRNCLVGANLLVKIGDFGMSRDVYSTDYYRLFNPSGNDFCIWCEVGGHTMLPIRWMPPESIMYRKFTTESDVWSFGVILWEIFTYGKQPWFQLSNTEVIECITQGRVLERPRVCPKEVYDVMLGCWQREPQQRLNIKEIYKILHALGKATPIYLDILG
Assay [7] deals with BaF3. Description: Antiproliferative activity against mouse BaF3 cells harbouring CD74-NTRK1 fusion protein incubated for 3 days by CCK8 method. The note with it: BaF3, 72 h.
The test system of assay [8] is BaF3. The experiment in a line: Antiproliferative activity against mouse BaF3 cells harbouring CD74-NTRK1 G595R mutant fusion protein incubated for 3 days by CCK8 method. It is filed as functional, cell-based. Conditions: BaF3, 72 h.

Regarding `Cc1cn(-c2cc(NC(=O)c3cc4cc(c3C)C#Cc3cnc5ccc(nn35)NCCC(=O)N(C)CCCCO4)cc(C(F)(F)F)c2)cn1`, the IC50 in assay [1] came to 21.1 nM; in assay [2] it was 5.83 nM; in assay [3], 91.8 nM.

In the case of `Cc1cn(-c2cc(NC(=O)c3cc4cc(c3C)C#Cc3cnc5ccc(nn35)C(=O)NCCCCCCO4)cc(C(F)(F)F)c2)cn1`, the IC50 in the assay on BaF3 [4] was 17.2 nM; in assay [1], 51.5 nM; in the assay with BaF3 [5], 541 nM; in assay [2], 12.2 nM; in assay [6] it was 9.45 nM; in assay [3], 562 nM. This compound gave an IC50 in the assay with BaF3 [7] of 416 nM.

With `Cc1c2cc(cc1C(=O)Nc1cc(CN3CCN(C)CC3)cc(C(F)(F)F)c1)OCCCCCCCNC(=O)c1ccc3ncc(n3n1)C#C2`, the IC50 is 15.7 nM in assay [1], 3.18 nM in assay [2] and 54.8 nM in assay [3].

For `Cc1c2cc(cc1C(=O)Nc1cc(Cl)cc(C(F)(F)F)c1)OCCCCCCCNC(=O)c1ccc3ncc(n3n1)C#C2`, the IC50 in assay [1] was 39.8 nM; in assay [2] it was 8.08 nM; in assay [3], more than 1000 nM.

Regarding `Cc1cn(-c2cc(NC(=O)c3cc4cc(c3C)C#Cc3cnc5ccc(nn35)NCCN(C)C(=O)CCCCO4)cc(C(F)(F)F)c2)cn1`, the IC50 with BaF3 [4] came out at 5.51 nM; with BaF3 [8], 172 nM; in assay [1], 17.4 nM; in the assay on BaF3 [5], 17.1 nM; in assay [2] it was 7.47 nM; in assay [6], 5.95 nM. In addition, the IC50 was determined as 124 nM in assay [3] and 33.7 nM with BaF3 [7].

Take `Cc1cn(-c2cc(NC(=O)c3cc4cc(c3C)C#Cc3cnc5ccc(nn35)NCCC(=O)NCCCCO4)cc(C(F)(F)F)c2)cn1`: the 50% inhibitory concentration (IC50) in assay [1] was 21 nM; in assay [2], 5.29 nM; in assay [3], 85.2 nM.

Consider `Cc1c2cc(cc1C(=O)Nc1cc(C(C)(C)C)nn1-c1ccc(Cl)cc1)OCCCCCCCNC(=O)c1ccc3ncc(n3n1)C#C2`, for which the IC50 is 10.2 nM in the assay on BaF3 [4]; 164 nM in assay [1]; 70.2 nM in the assay on BaF3 [5]; 14.6 nM in assay [2]; 13.5 nM in assay [6]; more than 1000 nM in assay [3]. For the same compound, inhibition in the assay on BaF3 [7] was half-maximal at 103 nM (IC50).

As to `Cc1c2cc(cc1C(=O)Nc1ccc(CN3CCN(C)CC3)c(C(F)(F)F)c1)OCCCCCCCNC(=O)c1ccc3ncc(n3n1)C#C2`, the IC50 was 2.25 nM in the assay with BaF3 [4]; 15.1 nM in assay [1]; 3030 nM with BaF3 [5]; 3.55 nM in assay [2]; 11.4 nM in assay [6]; more than 1000 nM in assay [3]. Besides, inhibition in the assay with BaF3 [7] was half-maximal at 32.1 nM (IC50).

Take `Cc1cn(-c2cc(NC(=O)c3cc4cc(c3C)C#Cc3cnc5ccc(nn35)C(=O)NCCCCCO4)cc(C(F)(F)F)c2)cn1`: the IC50 is 8.54 nM with BaF3 [4]; 58.1 nM in assay [1]; 140 nM in the assay on BaF3 [5]; 124 nM in assay [2]; 20.3 nM in assay [6]; more than 1000 nM in assay [3]. The compound further returned an IC50 in the assay on BaF3 [7] of 134 nM.

Consider `Cc1cn(-c2cc(NC(=O)c3cc4cc(c3C)C#Cc3cnc5ccc(nn35)C(=O)NCCCCCCCCO4)cc(C(F)(F)F)c2)cn1`, for which the IC50 is 8.21 nM in the assay on BaF3 [4]; 63.4 nM in assay [1]; 32.2 nM in the assay with BaF3 [5]; 7.5 nM in assay [2]; 27.8 nM in assay [6]; more than 1000 nM in assay [3]. Moreover, in the assay with BaF3 [7], the IC50 was determined as 59.7 nM.

Turning to `Cc1c2cc(cc1NC(=O)Nc1ccc(Cl)c(C(F)(F)F)c1)OCCCCCCCNC(=O)c1ccc3ncc(n3n1)C#C2`, the IC50 in assay [6] was 42.4 nM.

`Cc1cn(-c2cc(NC(=O)c3cc4cc(c3C)C#Cc3cnc5ccc(nn35)NCCNC(=O)CCCCO4)cc(C(F)(F)F)c2)cn1`: the half-maximal inhibitory concentration (IC50) in the assay with BaF3 [4] is 40.9 nM; in the assay on BaF3 [8], more than 1000 nM; in assay [1], 24.8 nM; in the assay with BaF3 [5] it was 202 nM; in assay [2], 8.21 nM; in assay [6], 7.06 nM. Besides, the IC50 is more than 1000 nM in assay [3] and 271 nM with BaF3 [7].
